# “And” between values parts separate entries of the source, which are not always exact repeats. Equal entries are not always repeated. Where two headings read alike, the source gives them in different places.
# Tests used:
# [1] = tested on: Herpes Simplex Virus type 1 (ATCC #VR-260); assay type: cell-based
# E. coli [2] = experiment: Log growth in Müller-Hinton media with or without NaCl; assay type: cell-based, Escherichia coli
# Experimental: Standard Müller-Hinton media was compared to Müller-Hinton media supplemented with NaCl to the same level as the saline-based media of Example 4. […] After inoculation of each MSM-containing media type with 1.9×10^7 cfu/mL of E. coli, the cultures were incubated at 35° C. for seven days. Aliquots of each culture were taken at 24 and 48 hours, as well as 7 days.
# [3] = tested on: Escherichia coli (ATCC strain 8739); experiment: Growth profile in sterile/non-sterile MSM media, streaked on MacConkey agar; assay type: cell-based; settings: 5-16% MSM
# Experimental: Tubes were incubated at 25° C.
# Bacillus coagulans [4] = experiment: Colony formation, population weight and percent transmittance with MSM; assay type: cell-based; settings: 546 nm, 25x25 mm agar section, 1.0, 2.5, 5.0% MSM
# Experimental: The microorganisms were grown for 72 hours in 30 milliliters of tryptic soy broth. At the end of the 72 hours, the broth was measured for colony formation, with photographic documentation of colony formation on tryptic soy agar. Percent transmittance was also measured on a 25 mm×25 mm area of the tryptic soy agar placed between two microscope slides in a spectrophotometer.
# For the Bacillus coagulans, the organism was isolated and grown for 24 hours before harvesting. The harvested microorganism was placed into a sterile 100 mL bottle called dilution A. Dilution A was further diluted into one working solution, with a count of 210 Bacillus coagulans per 1 mL, called dilution B. One milliliter of Dilution B was used to inoculate the 30 mL of TSB concentrations stated above.
# Each dilution for the microorganism was plated in triplicate for each sample. To capture the appropriate colonies per milliliter, the microorganism was plated at six different dilutions.
# The population count was based on the dilution of the tryptic soy broth after 72 hours and inoculation on to tryptic soy agar plates. The plates were incubated for 48 hours and enumerated.
# The tryptic soy broth after 72 hours was centrifuged down in a conical vial. The supernatant was pulled off and the pellet was washed. The centrifuging and washing was repeated three times. […] Each vial was weighed empty and recorded. […]
# [5] = tested on: MRC-5 (Human lung fibroblasts) cells; experiment: Toxicity control for Pre-Treatment test; assay type: cell-based
# Text: (§1) B. Toxicity Control for Pre-Treatment Test.
# [6] = tested on: Vero (African green monkey kidney) cells; experiment: Toxicity control for Pre-Treatment test; assay type: cell-based
# Text: as §1
# Bacillus coagulans [7] = experiment: Growth in simulated gastric acid supplemented with MSM; assay type: cell-based
# E. coli [8] = experiment: Log growth in MSM-lactose broth with or without DMSO; assay type: cell-based, Escherichia coli; settings: 24 hours
# Experimental: Lactose broth, free of both NaCl and of proteins, was used as the media in this experiment. […] Each media composition was initially inoculated with 6.75×10^6 cfu/mL of E. coli. Cultures were incubated at 25° C. for seven days. Aliquots of each culture were taken after 24 hours of culturing and at the end of seven days in culture. Aliquots were serially diluted (with Modified Letheen diluent) and plated on trypto-soy agar plates.
substance,measurement,setting,value
Methylsulfonylmethane [MSM],Average TCID50,[1],3.17log10 and 4.67log10 and 4.33log10 and 4.08log10 and 4.83log10 and 5.00log10 and 5.42log10
same,CPE at dilution −8,[1],0000
same,"Response, % reduction",[1],78.620% and 99.320% and 99.790% and 87.980% and 93.240% and 98.800% and 97.860% and 61.980%
same,average log10 reduction,[1]; 1% MSM,0.67 log10
same,average percent reduction,[1]; 1% MSM,78.62%
same,average log10 reduction,[1]; 2% MSM,0.84 log10
same,average percent reduction,[1]; 2% MSM,85.55%
same,average log10 reduction,[1]; 3% MSM,1.00 log10
same,average percent reduction,[1]; 3% MSM,90.00%
same,average percent reduction,[1]; 4% MSM,97.43%
same,"Response, % reduction",[1]; Dose 5.312 mM (log dose 0.7252581),32.390% and 61.980%
same,"Response, % reduction",[1]; Dose 31.871 mM (log dose 1.503396),96.200% and 93.240% and 61.980%
same,"Response, % reduction",[1]; Dose 53.118 mM (log dose 1.725242),87.980% and 93.240% and 98.800%
same,"HillSlope, best-fit value","[1]; log(inhibitor) vs. normalized response, variable slope",1.523
same,"LogIC50, best-fit value","[1]; log(inhibitor) vs. normalized response, variable slope, dose in mM",1.006
same,log reduction from the initial inoculum,"E. coli [2]; 24 hours, all media, MSM greater than 13%",approximately 1 log
same,reduced E. coli growth by,"E. coli [2]; 48 hours, MSM greater than 13%",1-2 logs
same,log reduction in E. coli,"E. coli [2]; 7 days, FMHS, 12% MSM",3 log
same,Growth profile of E. coli,"[3]; 24 hours, NS (sterile saline + non-sterile MSM), 8% MSM",Heavy
same,Growth profile of E. coli,"[3]; 24 hours, NS (sterile saline + non-sterile MSM), 12% MSM",Moderate
same,Growth profile of E. coli,"[3]; 24 hours, NSA (saline + MSM, then sterilized), 8% MSM",Heavy
same,Growth profile of E. coli,"[3]; 24 hours, NSA (saline + MSM, then sterilized), 12% MSM",Moderate
same,Growth profile of E. coli,"[3]; 24 hours, TSB (sterile TSB + non-sterile MSM), 8% MSM",Heavy
same,Growth profile of E. coli,"[3]; 24 hours, TSB (sterile TSB + non-sterile MSM), 10% MSM",Moderate
same,Growth profile of E. coli,"[3]; 24 hours, TSB (sterile TSB + non-sterile MSM), 11% MSM",Few
same,Growth profile of E. coli,"[3]; 24 hours, TSBA (TSB + MSM, then sterilized), 8% MSM",Heavy
same,Growth profile of E. coli,"[3]; 24 hours, TSBA (TSB + MSM, then sterilized), 10% MSM",Moderate
same,Growth profile of E. coli,"[3]; 24 hours, TSBA (TSB + MSM, then sterilized), 11% MSM",Few
same,Growth profile of E. coli,"[3]; 48 hours, NS, 8% MSM",Heavy
same,Growth profile of E. coli,"[3]; 48 hours, NS, 12% MSM",Moderate
same,Growth profile of E. coli,"[3]; 48 hours, NSA, 8% MSM",Heavy
same,Growth profile of E. coli,"[3]; 48 hours, NSA, 12% MSM",Moderate
same,Growth profile of E. coli,"[3]; 48 hours, TSB, 8% MSM",Heavy
same,Growth profile of E. coli,"[3]; 48 hours, TSB, 11% MSM",Moderate
same,Growth profile of E. coli,"[3]; 48 hours, TSB, 12% MSM",Few
same,Growth profile of E. coli,"[3]; 48 hours, TSBA, 8% MSM",Heavy
same,Growth profile of E. coli,"[3]; 48 hours, TSBA, 11% MSM",Moderate
same,Growth profile of E. coli,"[3]; 48 hours, TSBA, 12% MSM",Few
same,Growth profile of E. coli,"[3]; 72 hours, NS, 8% MSM",Heavy
same,Growth profile of E. coli,"[3]; 72 hours, NS, 12% MSM",Moderate
same,Growth profile of E. coli,"[3]; 72 hours, NSA, 8% MSM",Heavy
same,Growth profile of E. coli,"[3]; 72 hours, NSA, 12% MSM",Moderate
same,Growth profile of E. coli,"[3]; 72 hours, TSB, 8% MSM",Heavy
same,Growth profile of E. coli,"[3]; 72 hours, TSB, 11% MSM",Moderate
same,Growth profile of E. coli,"[3]; 72 hours, TSB, 12% MSM",Few
same,Growth profile of E. coli,"[3]; 72 hours, TSBA, 8% MSM",Heavy
same,Growth profile of E. coli,"[3]; 72 hours, TSBA, 11% MSM",Moderate
same,Growth profile of E. coli,"[3]; 72 hours, TSBA, 12% MSM",Few
same,Percent Transmittance,Bacillus coagulans [4]; 1.0% MSM,51.5%
same,Percent Transmittance,Bacillus coagulans [4]; 5.0% MSM,45.6%
same,Test Product Cytotoxicity (CPE),"[5]; MRC-5, 0.5%",00
same,Test Product Cytotoxicity (CPE),"[5]; MRC-5, 1%",00
same,Test Product Cytotoxicity (CPE),"[5]; MRC-5, 2%",00
same,Test Product Cytotoxicity (CPE),"[5]; MRC-5, 3%",00
same,Test Product Cytotoxicity (CPE),"[5]; MRC-5, 4%",00
same,Test Product Cytotoxicity (CPE),"[5]; MRC-5, 5%",00
same,Test Product Cytotoxicity (CPE),"[5]; MRC-5, 6%",00
same,Test Product Cytotoxicity (CPE),[6]; 0.5%,00
same,Test Product Cytotoxicity (CPE),[6]; 1%,00
same,Test Product Cytotoxicity (CPE),[6]; 2%,00
same,Test Product Cytotoxicity (CPE),[6]; 3%,00
same,Test Product Cytotoxicity (CPE),[6]; 4%,00
same,Test Product Cytotoxicity (CPE),[6]; 5%,00
same,Test Product Cytotoxicity (CPE),[6]; 6%,00
same,Test Product Cytotoxicity (CPE),[6]; 7%,00
same,Log Growth of Bacillus coagulans average,"Bacillus coagulans [7]; 5% MSM, 0 hours",0.26 logs
same,Log Growth of Bacillus coagulans average,"Bacillus coagulans [7]; 5% MSM, 3 hours",0 logs
same,Log Growth of Bacillus coagulans in duplicate,"Bacillus coagulans [7]; 5% MSM, 3 hours",0 logs
same,Log Growth of Bacillus coagulans average,"Bacillus coagulans [7]; 5% MSM, 6 hours",0 logs
same,Log Growth of Bacillus coagulans in duplicate,"Bacillus coagulans [7]; 5% MSM, 6 hours",0 logs
same,Log Growth of Bacillus coagulans average,"Bacillus coagulans [7]; 5% MSM, 9 hours",0 logs
same,Log Growth of Bacillus coagulans in duplicate,"Bacillus coagulans [7]; 5% MSM, 9 hours",0 logs
same,Log Growth of Bacillus coagulans average,"Bacillus coagulans [7]; 5% MSM, 12 hours",0 logs
same,Log Growth of Bacillus coagulans in duplicate,"Bacillus coagulans [7]; 5% MSM, 12 hours",0 logs
same,Log Growth of Bacillus coagulans average,"Bacillus coagulans [7]; 5% MSM, 15 hours",0.26 logs
same,Log Growth of Bacillus coagulans average,"Bacillus coagulans [7]; 5% MSM, 24 hours",0 logs
same,Log Growth of Bacillus coagulans in duplicate,"Bacillus coagulans [7]; 5% MSM, 24 hours",0 logs
same,Log Growth of Bacillus coagulans average,"Bacillus coagulans [7]; 5% MSM, 48 hours",0 logs
same,Log Growth of Bacillus coagulans in duplicate,"Bacillus coagulans [7]; 5% MSM, 48 hours",0 logs
same,Log Growth of Bacillus coagulans in duplicate,"Bacillus coagulans [7]; […] MSM, 0 hours",0 logs
same,Log Growth of Bacillus coagulans in duplicate,"Bacillus coagulans [7]; […] MSM, 3 hours",0 logs
same,Log Growth of Bacillus coagulans average,"Bacillus coagulans [7]; […] MSM, 9 hours",0 logs
same,Log Growth of Bacillus coagulans in duplicate,"Bacillus coagulans [7]; […] MSM, 9 hours",0 logs
same,Log Growth of Bacillus coagulans in duplicate,"Bacillus coagulans [7]; […] MSM, 12 hours",0 logs
same,Log Growth of Bacillus coagulans average,"Bacillus coagulans [7]; […] MSM, 15 hours",0 logs
same,Log Growth of Bacillus coagulans in duplicate,"Bacillus coagulans [7]; […] MSM, 15 hours",0 logs
same,Log Growth of Bacillus coagulans average,"Bacillus coagulans [7]; […] MSM, 24 hours",0 logs
same,Log Growth of Bacillus coagulans in duplicate,"Bacillus coagulans [7]; […] MSM, 24 hours",0 logs
same,Log Growth of Bacillus coagulans average,"Bacillus coagulans [7]; […] MSM, 48 hours",0 logs
same,Log Growth of Bacillus coagulans in duplicate,"Bacillus coagulans [7]; […] MSM, 48 hours",0 logs
same,"initial recovery, average",Bacillus coagulans [7]; […] and 5.0% MSM,0.26 logs
same,reduced bacterial growth,E. coli [8]; 11% MSM,about 2.2 logs
same,reduced bacterial growth,E. coli [8]; 16% MSM,about 1 log

# From patent publication US20110105623A1 (Biogenic Innovations, LLC, priority 2009, published 2011)
